# Measurements from patent publication US20250188033A1, “INHIBITOR OF REPLICATION PROTEIN A1 OF TRYPANOSOMA BRUCEI AND METHOD OF USE THEREOF” (Research Foundation of the City University of New York, published 2025).
# System: Trypanosoma brucei
# Assay: ALAMARBLUE cell viability / growth assay of T. brucei cells
# Assay type: cell-based
# Settings: T. brucei, 72 hours, normalized to DMSO control
# Method: To determine cell growth rate, WT and two TbRPA1 RNAi KD strains (KD1 and KD2) were seeded at a density of 1×10^5 cells/ml and cultured with or without tetracycline for the induction of RNAi. Cells were counted every 12 hours for 2 days. To determine the viability of TbRPA1-depleted cells, ALAMARBLUE® assay (Thermo Fisher, an established colorimetric technique that detects metabolically active cells) was used. Cells from each time point were incubated with ALAMARBLUE® dye for 4-6 hours and percentage of live cells was determined by measuring resorufin converted from resazurin by reducing environment of live cells. Synergy H1 microplate reader (BioTek) was used with 560/590 nm (excitation/emission) filter settings and Relative Fluorescence Unit (RFU) values were obtained. The percentage of viable cells were calculated from the RFU values.
# The initial assessment of JC-229's inhibitory effect on T. brucei cell growth was performed at 50 μM concentration. Trypanosome cells were seeded at 1×10^3 cells/ml density in 180 μl in a 96-well culture plate in triplicate. These cells were incubated with 50 μM JC-229 for 24, 48, and 72 hours. DMSO was used as a vehicle control at 0.0075%. JC-229-treated culture and control cultures were analyzed with the ALAMARBLUE® dye as described above.
# To obtain the EC50 value of JC-229, T. brucei cells were seeded at 1×10^3 cells/ml density in 180 μl in a 96-well culture plate in triplicate. These cells were incubated for 72 hours with increasing concentrations of JC-229, (0.5 μM to 50 μM) and cell viability was determined using the ALAMARBLUE® dye as described above.
# Trypanosoma brucei cytotoxicity of JC-229 and analogs were measured using ALAMARBLUE® assay (Rampersad, S. N. Multiple applications of ALAMARBLUE® as an indicator of metabolic function and cellular health in cell viability bioassays. Sensors (Basel) 12, 12347-12360 (2012). Trypanosome cells were seeded at 1×10^3 cells/ml density in 180 μl in a 96-well culture plate in triplicate. These cells were incubated with indicated concentration of JC compounds for 72 hours. DMSO was used as a vehicle control at 0.0075%. JC compound-treated cultures were then incubated with ALAMARBLUE® dye for 4-6 hours and percentage of live cells was determined using Synergy H1 microplate reader (BioTek) with 560/590 nm (excitation/emission) filter settings and Relative Fluorescence Unit (RFU) values were obtained. The percentage of viable cells were calculated from the RFU values by normalizing to DMSO treated control. In one embodiment, the inhibitor is characterized in that it provides at least 50%, at least 80% or at least 90% inhibition at a concentration of 5 μM when tested in accordance with the above conditions.
Compound,% Inhibition @2 μM,% Inhibition @10 μM,% Inhibition @5 μM
Cc1ccc(C(=O)Nc2ccc(Cl)c(Cl)c2)cc1S(=O)(=O)NCCOCCO [JC-890],4%,37%,
Cc1ccc(C(=O)NCc2ccccc2)cc1S(=O)(=O)Nc1ccc(Cl)c(Cl)c1 [JC-856],−7%,22%,
Cc1ccc(C(=O)Nc2ccc(Cl)c(Cl)c2)cc1S(=O)(=O)Nc1cc(C(F)(F)F)n[nH]1 [JC-874],1%,97%,51.8%
Cc1ccc(C(=O)Nc2ccc(Cl)c(Cl)c2)cc1S(=O)(=O)NC1CC(NC(=O)OC(C)(C)C)C1 (centres unmarked) [JC-956],−32%,,19%
Cc1ccc(C(=O)Nc2ccc(Cl)c(Cl)c2)cc1S(=O)(=O)NCCCNC(=S)Nc1ccc(F)cc1 [JC-1015],11%,,100%
Cc1ccc(C(=O)N[C@@H](Cc2ccccc2)C(N)=O)cc1S(=O)(=O)Nc1ccc(Cl)c(Cl)c1 [JC-862],−19%,27%,
Cc1ccc(C(=O)Nc2ccc(Cl)c(Cl)c2)cc1S(=O)(=O)NCCNC(=O)c1ccccc1 [JC-920],−5%,−9%,
Cc1ccc2c(NS(=O)(=O)c3cc(C(=O)Nc4ccc(Cl)c(Cl)c4)ccc3C)cccc2n1 [JC-913],2%,6%,
Cc1ccc(C(=O)Nc2ccc(Cl)c(Cl)c2)cc1S(=O)(=O)N1CCCC(NC(=O)OC(C)(C)C)C1 (centres unmarked) [JC-928],15%,100%,99.6%
Cc1ccc(C(=O)Nc2ccc(Cl)c(Cl)c2)cc1S(=O)(=O)N1CCC(NS(=O)(=O)c2ccc(Br)cc2C(F)(F)F)CC1 [JC-1011],63%,,101%
Cc1ccc(C(=O)Nc2ccc(Cl)c(Cl)c2)cc1S(=O)(=O)NCCc1ccccc1 [JC-854],−27%,14%,
Cc1ccc(C(=O)Nc2ccc(Cl)c(Cl)c2)cc1S(=O)(=O)N1CCC(NC(=S)Nc2cccc(C(F)(F)F)c2)CC1 [JC-1017],100%,,100%
Cc1ccc(C(=O)Nc2ccc(Cl)c(Cl)c2)cc1S(=O)(=O)C1CCNCC1.O=C(O)C(F)(F)F [JC-911],11%,25%,
Cc1ccc(C(=O)Nc2ccc(Cl)c(Cl)c2)cc1S(=O)(=O)N1CCC(NC(=S)Nc2ccc(C(F)(F)F)cc2)CC1 [JC-1020],100%,,100%
Cc1ccc(C(=O)Nc2ccc(Cl)c(Cl)c2)cc1S(=O)(=O)N1CCC(NS(=O)(=O)c2ccc(COc3ccccc3)cc2)CC1 [JC-1013],13%,,−9%
Cc1ccc(C(=O)Nc2ccc(Cl)c(Cl)c2)cc1S(=O)(=O)NNc1ccccc1 [JC-868],1%,20%,
Cc1ccc(C(=O)Nc2ccc(Cl)c(Cl)c2)cc1S(=O)(=O)Nc1ccc([N+](=O)[O-])cc1N [JC-892],13%,1%,
Cc1ccc(C(=O)Nc2ccc(Cl)c(Cl)c2)cc1S(=O)(=O)n1c(CN)nc2ccccc21.O=C(O)C(F)(F)F [JC-904],14%,2%,
Cc1ccc(C(=O)Nc2ccc(Cl)c(Cl)c2)cc1S(=O)(=O)C1CCCN(C(=O)OC(C)(C)C)C1 (centres unmarked) [Jc-950],28%,,3%
Cc1ccc(C(=O)Nc2ccc(Cl)c(Cl)c2)cc1S(=O)(=O)C1CCC(NC(=O)Cc2ccccc2)CC1 (centres unmarked) [JC-926],−8%,100%,28.9%
Cc1ccc(C(=O)Nc2ccc(Cl)c(Cl)c2)cc1S(=O)(=O)NCCCNC(=O)c1ccccc1 [JC-935],3%,19%,
Cc1ccc(C(=O)Nc2ccc(Cl)c(Cl)c2)cc1S(=O)(=O)Nc1cccc([N+](=O)[O-])c1N [JC-899],3%,14%,
Cc1ccc(C(=O)NCCN(C)C)cc1S(=O)(=O)Nc1ccc(Cl)c(Cl)c1.O=C(O)C(F)(F)F [JC-863],−40%,2%,

Compound,% Inhibition @2 μM,% Inhibition @10 μM,% Inhibition @5 μM
Cc1ccc(C(=O)Nc2ccc(Cl)c(Cl)c2)cc1S(=O)(=O)NCc1ccccc1 [JC-857],−5%,14%,
Cc1ccc(C(=O)Nc2ccc(Cl)c(Cl)c2)cc1S(=O)(=O)C1CCC(N)CC1 (centres unmarked) [JC-925],−8%,17%,
Cc1ccc(C(=O)Nc2ccc(Cl)c(Cl)c2)cc1S(=O)(=O)NCCNS(=O)(=O)c1cccc(Br)c1 [JC-994],−17%,,61%
Cc1ccc(C(=O)Nc2ccc(Cl)c(Cl)c2)cc1S(=O)(=O)N1CCC(NS(=O)(=O)c2ccc(CBr)cc2)CC1 [JC-1009],99%,,100%
O=C(Nc1ccc(Cl)c(Cl)c1)c1ccc(Cl)c(S(=O)(=O)Nc2ccc(Cl)c(Cl)c2)c1 [JC-853],−17%,81%,
Cc1ccc(C(=O)Nc2ccc(Cl)c(Cl)c2)cc1S(=O)(=O)NC(Cc1ccccc1)C(N)=O (centres unmarked) [JC-870],−34%,49%,
Cc1ccc(C(=O)Nc2ccc(Cl)c(Cl)c2)cc1S(=O)(=O)C1CCCC(N)C1 (centres unmarked) [JC-955],25%,,100%
Cc1ccc(C(=O)Nc2ccc(Cl)c(Cl)c2)cc1S(=O)(=O)N1CCCC(NC(=O)c2ccccc2)C1 (centres unmarked) [JC-931],3%,100%,98.5%
Cc1ccc(C(=O)Nc2ccc(Cl)c(Cl)c2)cc1S(=O)(=O)NCc1nc2c(F)c(F)ccc2[nH]1.O=C(O)C(F)(F)F [JC-903],11%,37%,
Cc1ccc(C(=O)Nc2ccc(Cl)c(Cl)c2)cc1S(=O)(=O)NCc1nc2ccccc2[nH]1.O=C(O)C(F)(F)F [JC-905],8%,10%,
Cc1ccc(C(=O)Nc2ccc(Cl)c(Cl)c2)cc1S(=O)(=O)N1CCC(NS(C)(=O)=O)CC1 [JC-969],18%,,−4%
Cc1ccc(C(=O)Nc2ccc(Cl)c(Cl)c2)cc1S(=O)(=O)Nc1ccc(C#N)cc1N [JC-889],−3%,−11%,
CC(=O)c1ccc(NS(=O)(=O)c2cc(C(=O)Nc3ccc(Cl)c(Cl)c3)ccc2C)cc1 [JC-909],15%,17%,
O=C(Nc1ccc(Cl)c(Cl)c1)c1ccc(Br)c(S(=O)(=O)Nc2ccc(Cl)c(Cl)c2)c1 [JC-855],−5%,89%,
Cc1ccc(C(=O)Nc2ccc(Cl)c(Cl)c2)cc1S(=O)(=O)NCCO [JC-872],−13%,21%,
Cc1ccc(C(=O)NNc2ccccc2)cc1S(=O)(=O)Nc1ccc(Cl)c(Cl)c1 [JC-860],5%,24%,
Cc1ccc(C(=O)Nc2ccc(Cl)c(Cl)c2)cc1S(=O)(=O)NCCNS(=O)(=O)c1ccc(Br)cc1C(F)(F)F [JC-995],−34%,,93%
Cc1ccc(C(=O)Nc2ccc(Cl)c(Cl)c2)cc1S(=O)(=O)Nc1cc(C(C)C)n[nH]1 [JC-888],16%,100%,62.1%
Cc1ccc(C(=O)Nc2ccc(Cl)c(Cl)c2)cc1S(=O)(=O)N1CCC(NC(=O)c2ccccc2)CC1 [JC-966],13%,,0%
Cc1ccc(C(=O)Nc2ccc(Cl)c(Cl)c2)cc1S(=O)(=O)N1CCC(NC(=O)OC(C)(C)C)CC1 [JC-896],17%,92%,69.4%
Cc1ccc(C(=O)Nc2ccc(Cl)c(Cl)c2)cc1S(=O)(=O)N1CCCC(NC(=S)Nc2ccccc2F)C1 (centres unmarked) [JC-1006],17%,,101%
Cc1ccc(C(=O)Nc2ccc(Cl)c(Cl)c2)cc1S(=O)(=O)C1CCN(C(=O)OC(C)(C)C)CC1 [JC-910],18%,73%,
Cc1ccc(C(=O)N[C@H](Cc2ccccc2)C(N)=O)cc1S(=O)(=O)Nc1ccc(Cl)c(Cl)c1 [JC-861],5%,4%,
